Test results published in patent US20040018606A1, “Control of protein systemic delivery by hypoxia using a tet-HIF1-alpha chimeric transactivator” (priority 2002, published 2004).

These compounds were tested on tetO-CMV promoter (assay: Luciferase activity in electroporated HeLa-16 cells treated with desferrioxamine, cobaltous chloride or 2-2′-dipyridyl). Settings: HeLa-16 cells electroporated with pTHV, 24 hours.
Format: cell-based
Experimental: HeLa cells were maintained in Dulbecco Modified Medium with Glutamax (Gibco) supplemented with 10% fetal calf serum. For transfection, 5×10e6 HeLa cells were electroporated with a Gene Pulser (Biorad) at 200 V, 960 microfarads in the presence of 25 μg of each plasmid, NaCl 3M in 50 microliters. For control experiments a Bluescript pBSK+ was electroporated instead of the plasmid of interest. Each suspension of cells was then split in aliquots and incubated either in medium alone or in medium supplemented with doxycycline (1 μg/ml), cobaltous chloride (100 μM), desferrioxamine (Def) (130 μM), 2-2′-dipyridyl (DP) (100 μM) or the MG132 proteasome inhibiteur (2.5 μM). For hypoxic conditions cells were placed at 37° C. in a closed chamber with 1% oxygen, 5% CO2 and 94% N2 (Air Liquide).
Electroporated cells were trypsinized and the pellet was lysed in 200 μl LB buffer (Tris Phosphate pH 7.8 25 mM, MgCl2 8 mM, dithiothreitol 1 mM, Triton×100 1%, glycerol 15%). The lysat was then centrifugated at 4° C., the supernatant was collected and luciferase activity was measured using a luminometer (Lumat LB 9501, Berthold). Results were expressed as relative luciferase activity per mg of cell lysates protein. Protein concentration determination was performed with the BCA Protein Assay Kit (Pierce).
The reporter plasmid encoded for a luciferase gene inserted downstream of a minimal CMV promoter that contains seven binding sites for the E.Coli tetracycline repressor (tetO-CMV)(20). HeLa cells were stably transfected with this vector and one clone named HeLa-16 was used in all transient transfection assays.
HeLa-16 cells were electroporated with each pTHV or pTV. After electroporation cells were split into aliquots, and exposed in parallel to 21% O2, 1% O2, 2,2′-dipyridyl (DP), desferrioxamine (Def), cobaltous chloride (Co) or MG132. Luciferase activities were measured 24 hours later and normalised as RLU (relative light unit) per mg of proteins.
For `c1ccc(-c2ccccn2)nc1` [DP, 2-2′-dipyridyl], the “effectiveness of the chemical in inducing transactivation by pTHV” value (“effectiveness of the chemical” below) was “most effective”.
In the case of `[Cl-].[Cl-].[Co+2]` [cobalt, cobaltous chloride], the “effectiveness of the chemical” value is reported as “lower than with DP”.
`CC(=O)N(O)CCCCCNC(=O)CCC(=O)N(O)CCCCCNC(=O)CCC(=O)N(O)CCCCCN` [desferrioxamine] was tested, and the “effectiveness of the chemical” value was “lower than with DP”.
